Test system: HEK Blue™ TNFα reporter cells
Experiment: TNF-α Induced HEK Blue Cellular Assay
Format: cell-based
Conditions: TNF-α stimulated HEK Blue TNFα reporter cells, 24 hrs, secreted alkaline phosphatase (QUANTI-Blue, 620 nm)
Procedure: Test articles were diluted in DMSO and serially diluted into 384 well assay plate (Corning 3765), at final concentrations ranging from […] to 0.5 nM. HEK Blue™ TNFα reporter cells were added at a final density of 10,000 cell per well in assay media [DMEM (Gibco, cat #21063-029), 10% fetal bovine serum (ExcelBio, cat #FND500), 1% Penicillin-Streptomycin (Solarbio, cat #P1400-100]. TNF-α (R&D 210-TA-020/CF) was then added to the assay plate at a final concentration of […]. This plate was then incubated for 24 hrs at 37° C. and 5% CO2. Secreted alkaline phosphatase expression was then measured using QUANTI-Blue™(Invivogen), according to manufacturer instructions and read on an Envision microplate reader at 620 nm.
Inhibition data for test compound over a range of concentration was plotted as percentage inhibition of the test compound (100%=maximum inhibition). IC50 values were determined after correcting for background [(sample read-mean of low control)/(mean of high control-mean of low control)] whereby the low control is DMSO without stimulation and high control is DMSO with stimulation. The IC50 is defined as the concentration of test compound which produces […] and was quantified using the 4 parameter logistic equation to fit the data.

SMILES | IC50 [nM]
[2H]C([2H])([2H])N1C(=O)c2cccc(OC(F)F)c2[C@H]2C[C@@H]1c1nc3ccc(-c4cnc5c(c4)OCC[C@@H]5N)cc3n12 [Example 30, (7R,14R)-11-((S)-4-amino-3,4-dihydro-2H-pyrano[3,2-b]pyridin-7-yl)-1-(difluoromethoxy)-6-(methyl-d3)-6,7-dihydro-7,14-methanobenzo[f]benzo[4,5]imidazo[1,2-a][1,4]diazocin-5(14H)-one] | < 100
CN1C(=O)c2cccc(OC(F)F)c2[C@H]2C[C@@H]1c1nc3ccc(-c4ccc5c(c4)NC(=O)C5(C)N)cc3n12 (stereo partly drawn) [Example 31, (7R,14R)-11-(3-amino-3-methyl-2-oxoindolin-6-yl)-1-(difluoromethoxy)-6-methyl-6,7-dihydro-7,14-methanobenzo[f]benzo[4,5]imidazo[1,2-a][1,4]diazocin-5(14H)-one] | < 100
[2H]C([2H])([2H])N1C(=O)c2cccc(OC(F)F)c2[C@H]2C[C@@H]1c1nc3ccc(-c4cnc5c(c4)OCC5(C)O)cc3n12 (stereo partly drawn) [Example 44, (7R,14R)-1-(difluoromethoxy)-11-(3-hydroxy-3-methyl-2,3-dihydrofuro[3,2-b]pyridin-6-yl)-6-(methyl-d3)-6,7-dihydro-7,14-methanobenzo[f]benzo[4,5]imidazo[1,2-a][1,4]diazocin-5(14H)-one] | < 100
[2H]C([2H])([2H])N1C(=O)c2cccc(OC(F)F)c2[C@H]2C[C@@H]1c1nc3ccc(-c4cnc5c(c4)COCC5(C)N)cc3n12 (stereo partly drawn) [Example 45, (7R,14R)-11-(8-amino-8-methyl-7,8-dihydro-5H-pyrano[4,3-b]pyridin-3-yl)-1-(difluoromethoxy)-6-(methyl-d3)-6,7-dihydro-7,14-methanobenzo[f]benzo[4,5]imidazo[1,2-a][1,4]diazocin-5(14H)-one] | 100 to 1000
[2H]C([2H])([2H])N1C(=O)c2cccc(OC(F)F)c2[C@H]2C[C@@H]1c1nc3ccc(-c4cnc5c(c4)OCCC5O)cc3n12 (stereo partly drawn) [Example 48, (7R,14R)-1-(difluoromethoxy)-11-(4-hydroxy-3,4-dihydro-2H-pyrano[3,2-b]pyridin-7-yl)-6-(methyl-d3)-6,7-dihydro-7,14-methanobenzo[f]benzo[4,5]imidazo[1,2-a][1,4]diazocin-5(14H)-one] | < 100

From US20260028348A1, “MODULATORS OF TNF-ALPHA ACTIVITY” (Forward Therapeutics, Inc., priority 2023, published 2026)
